Test results published in the supplement of paper PMC10307832.

Key:
Assay in all cases: relative viability (nuclei count vs DMSO), 5 days (fraction); higher = more cells survive
[1] = tested on: LU99A
In short: (§1)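 One day after seeding in 1536-well plates, lung cancer cell lines were dosed by pin tool. Dosing was either single-drug or a fixed anchor-drug dose plus five library-drug doses (not always all listed) in √10 steps. After 5 days, nuclei were stained in one fix-and-stain step and counted on 4× images, and relative viability is the nuclei count of treated wells over that of vehicle wells, given as the median of duplicate plates.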

[2] = tested on: NCI-H460
In short: as §1

[3] = tested on: NCI-H1437
In short: as §1

[4] = tested on: BEN
In short: as §1

[5] = tested on: NCI-H1734
In short: as §1

[6] = tested on: NCI-H2085
In short: as §1

[7] = tested on: NCI-H1355
In short: as §1

[8] = tested on: NCI-H1650
In short: as §1

[9] = tested on: NCI-H1793
In short: as §1

[10] = tested on: SK-LU-1
In short: as §1

[11] = tested on: NCI-H1975
In short: as §1

[12] = tested on: CAL-12T
In short: as §1

[13] = tested on: COR-L23
In short: as §1

[14] = tested on: NCI-H441
In short: as §1

[15] = tested on: NCI-H1563
In short: as §1

[16] = tested on: NCI-H1651
In short: as §1

[17] = tested on: LOU-NH91
In short: as §1

[18] = tested on: NCI-H358
In short: as §1

[19] = tested on: NCI-H838
In short: as §1

[20] = tested on: NCI-H2023
In short: as §1

[21] = tested on: HCC-366
In short: as §1

`Cc1sc2c(c1C)C(c1ccc(Cl)cc1)=N[C@@H](CC(=O)OC(C)(C)C)c1nnc(C)n1-2` [JQ1] + CS(=O)(=O)N1CCN(Cc2cc3nc(-c4cccc5[nH]ncc45)nc(N4CCOCC4)c3s2)CC1 [Pictilisib] (partner 1 µM) showed a relative viability ([1]; first compound 0.04 µM) of 0.322, a relative viability ([1]; first compound 0.1265 µM) of 0.32 and a relative viability ([1]; first compound 0.4 µM) of 0.398. It also gave a relative viability ([1]; first compound 1.265 µM) of 0.201, a relative viability ([1]; first compound 4 µM) of 0.203 and a relative viability ([2]; first compound 0.04 µM) of 0.398. It also gave a relative viability ([2]; first compound 0.4 µM) of 0.276, a relative viability ([2]; first compound 1.265 µM) of 0.204 and a relative viability ([2]; first compound 4 µM) of 0.135. The relative viability ([3]; first compound 0.04 µM) was 0.405, the relative viability ([3]; first compound 0.1265 µM) was 0.237 and the relative viability ([3]; first compound 0.4 µM) was 0.233. It also gave a relative viability ([3]; first compound 1.265 µM) of 0.157, a relative viability ([3]; first compound 4 µM) of 0.168 and a relative viability ([4]; first compound 0.04 µM) of 0.481. It also gave a relative viability ([4]; first compound 0.1265 µM) of 0.486, a relative viability ([4]; first compound 0.4 µM) of 0.461 and a relative viability ([4]; first compound 1.265 µM) of 0.272. The relative viability ([4]; first compound 4 µM) was 0.205, the relative viability ([5]; first compound 0.04 µM) was 0.466 and the relative viability ([5]; first compound 0.1265 µM) was 0.444. The relative viability ([5]; first compound 0.4 µM) was 0.503, the relative viability ([5]; first compound 1.265 µM) was 0.296 and the relative viability ([5]; first compound 4 µM) was 0.327. The relative viability ([6]; first compound 0.04 µM) was 0.462, the relative viability ([6]; first compound 0.1265 µM) was 0.497 and the relative viability ([6]; first compound 0.4 µM) was 0.441. The relative viability ([6]; first compound 1.265 µM) was 0.368, the relative viability ([6]; first compound 4 µM) was 0.385 and the relative viability ([7]; first compound 0.04 µM) was 0.429. It also gave a relative viability ([7]; first compound 0.1265 µM) of 0.426, a relative viability ([7]; first compound 0.4 µM) of 0.456 and a relative viability ([7]; first compound 1.265 µM) of 0.334. For the same molecule, the relative viability ([7]; first compound 4 µM) was 0.281, the relative viability ([8]; first compound 0.04 µM) was 0.625 and the relative viability ([8]; first compound 0.1265 µM) was 0.445. The relative viability ([8]; first compound 0.4 µM) was 0.286, the relative viability ([8]; first compound 1.265 µM) was 0.122 and the relative viability ([8]; first compound 4 µM) was 0.169. For the same molecule, the relative viability ([9]; first compound 0.04 µM) was 0.434, the relative viability ([9]; first compound 0.1265 µM) was 0.391 and the relative viability ([9]; first compound 0.4 µM) was 0.564. It also gave a relative viability ([9]; first compound 1.265 µM) of 0.339, a relative viability ([9]; first compound 4 µM) of 0.453 and a relative viability ([10]; first compound 0.04 µM) of 0.581. For the same molecule, the relative viability ([10]; first compound 0.1265 µM) was 0.438, the relative viability ([10]; first compound 0.4 µM) was 0.456 and the relative viability ([10]; first compound 1.265 µM) was 0.256. For the same molecule, the relative viability ([10]; first compound 4 µM) was 0.171, the relative viability ([11]; first compound 0.04 µM) was 0.298 and the relative viability ([11]; first compound 0.1265 µM) was 0.246. For the same molecule, the relative viability ([11]; first compound 0.4 µM) was 0.27, the relative viability ([11]; first compound 1.265 µM) was 0.214 and the relative viability ([11]; first compound 4 µM) was 0.204. The relative viability ([12]; first compound 0.04 µM) was 0.414, the relative viability ([12]; first compound 0.4 µM) was 0.457 and the relative viability ([12]; first compound 1.265 µM) was 0.293. For the same molecule, the relative viability ([12]; first compound 4 µM) was 0.36, the relative viability ([13]; first compound 0.04 µM) was 0.805 and the relative viability ([13]; first compound 0.1265 µM) was 0.692. For the same molecule, the relative viability ([13]; first compound 0.4 µM) was 0.524, the relative viability ([13]; first compound 1.265 µM) was 0.3 and the relative viability ([13]; first compound 4 µM) was 0.202. It also gave a relative viability ([14]; first compound 0.04 µM) of 0.475, a relative viability ([14]; first compound 0.1265 µM) of 0.561 and a relative viability ([14]; first compound 0.4 µM) of 0.38. It also gave a relative viability ([14]; first compound 1.265 µM) of 0.234, a relative viability ([14]; first compound 4 µM) of 0.195 and a relative viability ([15]; first compound 0.04 µM) of 0.606. For the same molecule, the relative viability ([15]; first compound 0.1265 µM) was 0.645, the relative viability ([15]; first compound 0.4 µM) was 0.611 and the relative viability ([15]; first compound 1.265 µM) was 0.622. The relative viability ([15]; first compound 4 µM) was 0.638, the relative viability ([16]; first compound 0.04 µM) was 0.476 and the relative viability ([16]; first compound 0.1265 µM) was 0.451. The relative viability ([16]; first compound 0.4 µM) was 0.335, the relative viability ([16]; first compound 1.265 µM) was 0.271 and the relative viability ([16]; first compound 4 µM) was 0.245. The relative viability ([17]; first compound 0.04 µM) was 0.529, the relative viability ([17]; first compound 0.1265 µM) was 0.545 and the relative viability ([17]; first compound 0.4 µM) was 0.463. It also gave a relative viability ([17]; first compound 1.265 µM) of 0.419, a relative viability ([17]; first compound 4 µM) of 0.354 and a relative viability ([18]; first compound 0.04 µM) of 0.329. The relative viability ([18]; first compound 0.1265 µM) was 0.431, the relative viability ([18]; first compound 0.4 µM) was 0.376 and the relative viability ([18]; first compound 1.265 µM) was 0.386. It also gave a relative viability ([18]; first compound 4 µM) of 0.336, a relative viability ([19]; first compound 0.04 µM) of 0.397 and a relative viability ([19]; first compound 0.1265 µM) of 0.3. The relative viability ([19]; first compound 0.4 µM) was 0.319, the relative viability ([19]; first compound 1.265 µM) was 0.208 and the relative viability ([19]; first compound 4 µM) was 0.232. It also gave a relative viability ([20]; first compound 0.04 µM) of 0.234, a relative viability ([20]; first compound 0.1265 µM) of 0.268 and a relative viability ([20]; first compound 0.4 µM) of 0.196. The relative viability ([20]; first compound 1.265 µM) was 0.161, the relative viability ([20]; first compound 4 µM) was 0.156 and the relative viability ([21]; first compound 0.04 µM) was 0.136. For the same molecule, the relative viability ([21]; first compound 0.1265 µM) was 0.156, the relative viability ([21]; first compound 0.4 µM) was 0.131 and the relative viability ([21]; first compound 1.265 µM) was 0.153. It also gave a relative viability ([21]; first compound 4 µM) of 0.196.
